46 substances from patent US20250320496A1, “MODULATION OF ABCB11 GENE TRANSCRIPTION USING ANTISENSE OLIGONUCLEOTIDES TARGETING REGULATORY RNAS” (CAMP4 Therapeutics Corporation, priority 2022, published 2025) can be followed below.

Strand notation (5' to 3'): a small letter for the sugar, then the base; units joined by * are phosphorothioate-linked, units joined directly phosphodiester-linked; [ ] holds rarer units or linkages, { } end groups; capitals alone tell only the bases. e = 2'-O-(2-methoxyethyl) (MOE); l = locked nucleic acid (LNA); [5mC] = 5-methylcytosine; d = 2'-deoxy (DNA)

The first series has as its system human ABCB11 mRNA. As to the kind of experiment: ASO treatment of primary human hepatocytes (PHH), ABCB11 mRNA by RT-qPCR normalized to B2M. It is filed as cell-based. The settings on record: primary human hepatocytes, 5 μM ASO with PO-modifications, normalized to untreated hepatocytes. In a few lines: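 Plated primary human hepatocytes were treated 4 h post-thaw with ASO (e.g., 1.25–10 μM; initial screen 5 μM) in medium containing 0.3 mg/ml Matrigel for 72 hrs. Total RNA was reverse-transcribed and ABCB11 mRNA measured by Taqman RT-qPCR, normalized to B2M, with fold change versus untreated PHHs.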
On the technique in general: Real-time PCR tracks product formation cycle by cycle.
In the case of “CO-11208 (antisense eT*eG*eTeT*eTeT*eGe[5mC]*eTeT*eGeG*eTe[5mC]*eAeA*eGeA*eG*eG)”, the “ABCB11 FC mRNA (5 μM ASO vs. untreated)” value is reported as 1.04 fold change.
The same measure, in the same setting: under “CO-11227 (antisense eG*eT*lG*eGeA*lG*e[5mC]*eAlA*eA*e[5mC]*lTeA*eG*lG*e[5mC]eA*l[5mC]*eT*eG)” stands 2.11 fold change.
Turning to “CO-11232 (antisense eG*eT*lGeG*eAlG*e[5mC]eA*lAeA*e[5mC]lT*eAeG*lGe[5mC]*eAl[5mC]*eT*eG)”, the “ABCB11 FC mRNA (5 μM ASO vs. untreated)” value was 1.72 fold change.
Regarding “CO-12747 (antisense eG*eT*eGeAeGeGe[5mC]*eA*eT*e[5mC]*eA*eG*eG*eTeAeAeGeT*eT*e[5mC])”, the “ABCB11 FC mRNA (5 μM ASO vs. untreated)” value was found to be 0.97 fold change.
Turning to “CO-11230 (antisense eG*eTlG*eG*eAlG*e[5mC]*eAlA*eA*e[5mC]lT*eA*eGlG*e[5mC]*eAl[5mC]*eT*eG)”, the “ABCB11 FC mRNA (5 μM ASO vs. untreated)” value came to 1.63 fold change.
On the same count and under the same terms, under “CO-12749 (antisense eG*eT*eGeA*eG*eG*e[5mC]*eAeT*e[5mC]*eA*eG*eGeT*eA*eA*eG*eTeT*e[5mC])” stands 0.95 fold change; under “CO-11241 (antisense eG*eTeG*eG*lA*eGe[5mC]*eA*eA*lAe[5mC]*eT*eA*eGlG*e[5mC]*eA*e[5mC]eT*eG)”, 1.71 fold change.
As for “CO-12745 (antisense eG*eT*eG*eA*eGeGe[5mC]*eA*eT*e[5mC]*eA*eG*eG*eTeAeA*eG*eT*eT*e[5mC])”, the “ABCB11 FC mRNA (5 μM ASO vs. untreated)” value is listed as 0.92 fold change.

Still in this series, the particulars now being: primary human hepatocytes, 5 μM ASO, normalized to untreated PHHs (UNT).
As for “CO-7150: derivative ASO with additional chemical modifications based on parent ASO CO-4517 (antisense e[5mC]*e[5mC]*eT*eT*eA*dG*dG*dA*eG*dG*dA*dT*dT*eA*dT*dT*dT*eA*eA*e[5mC]*e[5mC]*eT)”, the “ABCB11 mRNA FC (5 μM ASO vs. UNT)” value worked out at 1.505 fold change.
On the same count and under the same terms, the same measure for “CO-4504 (antisense eG*eT*eG*eT*e[5mC]*eT*eA*eT*eT*eT*eG*eG*eT*eA*eT*e[5mC]*eA*eG*eA*e[5mC])”: 1.232 fold change; for “CO-6973 (antisense eA*eA*eA*eA*eA*eT*eG*eGeGeT*eGeT*eG*eG*eA*eT*eG*eT*eA*eG)”: 1.325 fold change.
The same measure, in the same setting: the same measure for “CO-4482 (antisense eT*eA*eA*e[5mC]*eT*eG*eG*eG*eA*eG*eT*eA*eT*eA*eG*eA*eG*eG*eA*e[5mC])”: 1.001 fold change.
As for “CO-7003 (antisense eG*eT*eG*eA*eG*lG*e[5mC]*eA*eT*e[5mC]*lA*eG*eG*eT*eA*lA*eG*eT*eT*e[5mC])”, the “ABCB11 mRNA FC (5 μM ASO vs. UNT)” value amounted to 1.066 fold change.
On the same count and under the same terms, the same measure for “CO-4489 (antisense e[5mC]*eA*e[5mC]*eA*eG*eA*eG*eT*eG*e[5mC]*e[5mC]*eA*eA*eG*eG*eA*eG*eT*eT*eA)”: 1.083 fold change.
With “CO-4498 (antisense eG*eT*e[5mC]*e[5mC]*e[5mC]*eT*eG*eT*eG*eG*eT*eT*eA*e[5mC]*e[5mC]*eT*eA*eA*eA*eG)”, the “ABCB11 mRNA FC (5 μM ASO vs. UNT)” value is given as 0.934 fold change.
The same measure, in the same setting: the same measure for “CO-6986 (antisense eT*eG*eG*lA*eT*dG*dT*lA*dG*dA*dT*lG*dA*dA*dT*lG*eG*e[5mC]*eA*eA)”: 0.998 fold change.
As to “CO-7095 (eA*e[5mC]*e[5mC]*l[5mC]*e[5mC]*e[5mC]*e[5mC]*lT*e[5mC]*eA*e[5mC]*l[5mC]*eT*eT*eG*lG*eT*eT*e[5mC]*e[5mC]; antisense)”, the “ABCB11 mRNA FC (5 μM ASO vs. UNT)” value amounted to 0.925 fold change.
On to “CO-6994 (antisense eT*eG*eG*eA*lT*eG*eT*eA*eG*lA*eT*eG*eA*eA*lT*eG*eG*e[5mC]*eA*eA)”, for which the “ABCB11 mRNA FC (5 μM ASO vs. UNT)” value worked out at 1.131 fold change.
Consider “CO-4031 (antisense eG*eG*e[5mC]*eT*eT*e[5mC]*e[5mC]*eT*e[5mC]*eA*eA*eA*eT*eT*e[5mC]*eA*eT*eA*eT*eT)”, for which the “ABCB11 mRNA FC (5 μM ASO vs. UNT)” value is 1.427 fold change.
On the same count and under the same terms, the same measure for “CO-7091 (eA*e[5mC]*e[5mC]*l[5mC]*e[5mC]*l[5mC]*e[5mC]*lT*e[5mC]*lA*e[5mC]*l[5mC]*eT*lT*eG*lG*eT*lT*e[5mC]*e[5mC]; antisense)”: 1.164 fold change; for “CO-4480 (antisense e[5mC]*e[5mC]*eT*eG*eA*eG*eA*eT*eT*eG*eA*eG*e[5mC]*eT*eA*eT*eA*e[5mC]*eT*eG)”: 0.931 fold change; for “CO-7178: derivative ASO with additional chemical modifications based on parent ASO CO-4529 (antisense eG*eT*eG*lG*eA*lG*e[5mC]*lA*eA*lA*e[5mC]*lT*eA*lG*eG*l[5mC]*eA*l[5mC]*eT*eG)”: 1.737 fold change.
On the same count and under the same terms, under “CO-6990 (antisense eT*eG*lG*eA*eT*lG*eT*eA*lG*eA*eT*lG*eA*eA*lT*eG*eG*l[5mC]*eA*eA)” stands 1.16 fold change; under “CO-7008 (antisense eG*eT*eG*eG*eA*lT*dG*dT*lA*dG*dA*dT*dG*lA*dA*dT*lG*eG*e[5mC]*eA*eA*eG)”, 1.175 fold change; under “CO-7053 (antisense e[5mC]*e[5mC]*eT*e[5mC]*eA*e[5mC]*e[5mC]*eT*eT*eG*eG*eT*eT*e[5mC]*e[5mC]*e[5mC]*e[5mC]*e[5mC]*eT*eG)”, 1.145 fold change.
With “CO-7034 (antisense eT*eT*eA*eG*eA*eG*eA*e[5mC]*eA*eA*eA*eG*eA*eA*eT*e[5mC]*eG*e[5mC]*eT*eG)”, the “ABCB11 mRNA FC (5 μM ASO vs. UNT)” value was found to be 1.097 fold change.
Still for that read-out and setting: under “CO-7055 (antisense eT*e[5mC]*eA*e[5mC]*e[5mC]*e[5mC]*e[5mC]*e[5mC]*e[5mC]eT*e[5mC]*eA*e[5mC]*e[5mC]*eT*eT*eG*eG*eT*eT)” stands 1.498 fold change; under “CO-4015 (antisense eG*eT*eT*eT*eG*e[5mC]*eT*e[5mC]*eT*eG*eA*eT*eA*eA*eT*e[5mC]*eA*e[5mC]*eA*eG)”, 1.043 fold change; under “CO-7149: derivative ASO with additional chemical modifications based on parent ASO CO-4517 (antisense e[5mC]*e[5mC]*eT*eT*eA*eG*eG*eA*eG*eG*eA*eT*eT*eA*eT*eT*eT*eA*eA*e[5mC]*e[5mC]*eT)”, 1.719 fold change.
The same measure, in the same setting: under “CO-7195 (eG*eG*eT*eG*eG*eA*dG*d[5mC]*dA*dA*dA*d[5mC]*dT*dA*dG*dG*e[5mC]*eA*e[5mC]*eT*eG*eA; antisense)” stands 1.443 fold change; under “CO-4528 (antisense e[5mC]*eT*eG*eG*eG*eA*eT*eA*eG*eG*eG*eT*eG*eG*eA*eT*e[5mC]*eT*eA*e[5mC])”, 0.883 fold change.
Still for that read-out and setting: the same measure for “CO-7051 (antisense eA*e[5mC]*e[5mC]*eT*eT*eG*eG*eT*eT*e[5mC]*e[5mC]*e[5mC]*e[5mC]*e[5mC]*eT*eG*e[5mC]*eT*eG*eT)”: 1.201 fold change; for “CO-7201 (eA*eG*eG*eT*eG*dG*dA*eG*d[5mC]*dA*eA*dA*d[5mC]*eT*dA*dG*eG*d[5mC]*dA*e[5mC]*eT*eG*eA*eG; antisense)”: 1.253 fold change.
As for “CO-3995 (antisense eG*eT*e[5mC]*eT*eA*eG*eG*eA*eG*e[5mC]*eT*eT*e[5mC]*eT*eG*eT*eT*eT*eA*e[5mC])”, the “ABCB11 mRNA FC (5 μM ASO vs. UNT)” value came to 1.683 fold change.
The same measure, in the same setting: the same measure for “CO-7024 (antisense eG*e[5mC]*eT*eT*eA*eT*e[5mC]*eT*eG*eG*eA*eA*eA*eA*eT*eA*eA*eT*eG*e[5mC])”: 1.415 fold change; for “CO-4499 (antisense eA*eA*eG*eG*eA*eA*eG*eG*eT*e[5mC]*eT*eA*eG*e[5mC]*eG*eG*eA*eG*eG*eT)”: 1.202 fold change; for “CO-4056 (antisense eG*e[5mC]*eT*eT*eA*eT*eT*eT*eG*eA*e[5mC]*eT*e[5mC]*eA*eA*eG*eA*e[5mC]*e[5mC]*eT)”: 1.115 fold change.
“CO-7210 (eT*eT*eT*eG*eG*d[5mC]*dG*lT*dT*dA*lT*dT*dA*lA*dT*dT*l[5mC]*dT*dA*e[5mC]*eA*eG*eA*eG; antisense)”: the “ABCB11 mRNA FC (5 μM ASO vs. UNT)” value is listed as 1.362 fold change.
On the same count and under the same terms, the same measure for “CO-7155 (antisense eA*e[5mC]*e[5mC]*eT*eT*dA*dG*lG*dA*dG*lG*dA*dT*lT*dA*dT*lT*dT*dA*eA*e[5mC]*e[5mC]*eT*e[5mC])”: 1.253 fold change; for “CO-4039 (antisense eG*eG*eT*eT*eA*eT*eT*eG*e[5mC]*eT*e[5mC]*eT*eG*eA*eG*eT*eA*eT*eG*eT)”: 1.022 fold change; for “CO-4035 (antisense eG*eT*eT*e[5mC]*eA*eG*eT*eG*e[5mC]*eT*eT*eT*eA*eG*eA*eA*eT*eG*eA*eT)”: 0.926 fold change.
On the same count and under the same terms, the same measure for “CO-4497 (antisense eG*eG*eT*eG*eT*eT*eG*eA*eG*eA*eA*e[5mC]*eT*eA*eG*eA*eA*eT*eA*eT)”: 1.024 fold change.
On the same count and under the same terms, the same measure for “CO-4063 (antisense eG*e[5mC]*eA*e[5mC]*e[5mC]*e[5mC]*eA*eA*e[5mC]*e[5mC]*eA*eA*eG*eT*e[5mC]*eT*eT*eG*eA*e[5mC])”: 1.457 fold change; for “CO-6991 (antisense eT*eG*eG*eA*lT*eG*eT*eA*lG*eA*eT*eG*lA*eA*eT*eG*lG*e[5mC]*eA*eA)”: 1.193 fold change.
With “CO-7167 (antisense eG*eG*e[5mC]*eG*eT*eT*eA*eT*eT*eA*eA*eT*eT*e[5mC]*eT*eA*e[5mC]*eA*eG*eA)”, the “ABCB11 mRNA FC (5 μM ASO vs. UNT)” value is reported as 1.403 fold change.
Still for that read-out and setting: the same measure for “CO-7007 (antisense eG*eT*eG*eG*eA*dT*dG*dT*eA*dG*dA*dT*dG*eA*dA*dT*dG*eG*e[5mC]*eA*eA*eG)”: 0.963 fold change.
